IC50, inhibition and EC50 data for 5 molecules are collected here from patent US20240132449A1, “HETEROCYCLIC COMPOUNDS AND METHODS OF USE THEREOF” (1cBio, Inc., priority 2022, published 2024).

As usually defined, the pIC50 is the IC50 on a negative log10 scale, so that one unit is a factor of ten. A word on the pEC50: it is the EC50 on a negative log10 scale, so that one unit is a factor of ten.

One experiment deals with recombinant human PARP2 (Homo sapiens, UniProt Q9UGN5). The experiment in a line: PARP2 fluorescence polarization binding assay. The following applies: for pIC50: binding IC50, GST-tagged PARP2 20 nM, PARPi-FL 3 nM; for inhibition at 10 µM: read-out: PARP2 % inh at 10 μM. The method in brief:
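GST-tagged PARP2, added at 40 nM in 50 mM Tris pH 8.0, 0.001% Triton X-100, 10 mM MgCl2, 150 mM NaCl, was preincubated 30 min at RT with compound (10-point 3-fold series or single concentration). PARPi-FL probe was then added at 6 nM for 4 h. IC50 was fitted from fluorescence polarization (ex 480/em 535 nm) with floating top and bottom.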
On the technique in general: Fluorescence polarisation rises when a labelled molecule tumbles more slowly, as on binding a larger partner.

In the next experiment the target is PARP1 (Homo sapiens, UniProt P09874). The experiment in a line: PARP1 biochemical trapping assay (BPS PARPtrap). Here is the method:
Compounds of the present disclosure were tested in a PARP1 biochemical trapping assay at BPS Bioscience (San Diego, CA). PARP1 is known to bind damaged DNA through its DNA-binding domains. Binding to DNA activates PARP1, and in the presence of NAD+, PARP1 ribosylates itself (auto-ribosylation), leading to PARP1 dissociation from the DNA due to the accumulated negative charge of the ribosyl polymer. In the presence of some inhibitors, however, PARP remains bound to the DNA, a phenomenon termed trapping.
The BPS PARPtrap assay kit for PARP1 (BPS Catalog #80584) was used. A series of dilutions of the compounds were prepared with 10% DMSO in water. The final concentration of DMSO was 1% in all reactions. The enzymatic reactions were conducted in duplicates at room temperature in a 96-well plate. The 45 μl reaction mixtures in PARPtrap buffer 1 containing PARP1 fluorescent labelled oligonucleotide duplex, PARP enzyme and the test compound were incubated at room temperature for 10 min. After pre-incubation, the enzymatic reaction was initiated by adding 5 μl of 10×NAD+ solution. The reaction was incubated for 45-60 min at room temperature.
Fluorescence polarization was measured at an excitation of 470 nm and an emission of 518 nm using a Tecan Infinite M1000 microplate reader. The blank value was subtracted from all other values. Fluorescence polarization was analyzed by Tecan Magellan 6 software and wells containing DNA were used as references. The fluorescence polarization data were then evaluated using GraphPad Prism software. The fluorescence polarization in absence of the compound in each data set was defined as 0% activity (FPo), while the fluorescence polarization in the absence of both NAD+ and the compound was defined as 100% activity (FPt). The percent activity in the presence of the compound was calculated according to the equation % activity=[FP−FPo]/[(FPt−FPo)]×100, where FP=the fluorescence polarization in the presence of the compound.
The values of % activity versus a series of compound concentrations were then plotted using non-linear regression analysis of a sigmoidal dose-response curve generated with the equation Y=B+(T−B)/1+10^((LogEC50−X)×Hill Slope), where Y=percent activity, B=minimum percent activity, T=maximum percent activity, X=logarithm of compound and Hill Slope=slope factor or Hill coefficient. The EC50 value was determined by the concentration causing a half-maximal percent activity. EC50 values are shown in Table C and are presented in ranges, in which “+++”<300 nM, 300 nM≤“++”<3000 nM, and “+”≥3000 nM.

Experiment [1] deals with DLD-1 BRCA2(−/−) colorectal adenocarcinoma cells. The experiment is described as follows: Cell viability assay (Cell Titer-Glo), DLD-1 BRCA2(−/−). In kind it is cell-based. Particulars: Homo sapiens, DLD-1, 168 h; 7 days incubation, 200 cells/well. The method in brief:
(§1)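 Isogenic DLD-1 wild-type (50 cells/well) and BRCA2(−/−) (200 cells/well) lines treated after overnight attachment, 7 days at 37 °C, 5% CO2. Ten-point dilutions (e.g. 1.5 nM–30 μM) or single dose; CellTiter-Glo luminescence; IC50 from four-parameter fit, plus % inhibition at 10 μM.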
(In general: In ATP-based viability assays light output follows the ATP content of the culture.)

In experiment [2] the test system is DLD-1 wild-type colorectal adenocarcinoma cells. The experiment in a line: Cell viability assay (Cell Titer-Glo), DLD-1 wild-type. In kind it is cell-based. Particulars: Homo sapiens, DLD-1, 168 h, 7 days incubation; for inhibition at 10 µM: read-out: DLD-1 wild-type % inh at 10 μM; for pIC50: 50 cells/well. The method in brief:
as §1

pEC50, pIC50: −log10 of the molar value. Structures can show the parent of a compound that is named as a salt.

recombinant human PARP2, sequence (Q9UGN5 whole entry): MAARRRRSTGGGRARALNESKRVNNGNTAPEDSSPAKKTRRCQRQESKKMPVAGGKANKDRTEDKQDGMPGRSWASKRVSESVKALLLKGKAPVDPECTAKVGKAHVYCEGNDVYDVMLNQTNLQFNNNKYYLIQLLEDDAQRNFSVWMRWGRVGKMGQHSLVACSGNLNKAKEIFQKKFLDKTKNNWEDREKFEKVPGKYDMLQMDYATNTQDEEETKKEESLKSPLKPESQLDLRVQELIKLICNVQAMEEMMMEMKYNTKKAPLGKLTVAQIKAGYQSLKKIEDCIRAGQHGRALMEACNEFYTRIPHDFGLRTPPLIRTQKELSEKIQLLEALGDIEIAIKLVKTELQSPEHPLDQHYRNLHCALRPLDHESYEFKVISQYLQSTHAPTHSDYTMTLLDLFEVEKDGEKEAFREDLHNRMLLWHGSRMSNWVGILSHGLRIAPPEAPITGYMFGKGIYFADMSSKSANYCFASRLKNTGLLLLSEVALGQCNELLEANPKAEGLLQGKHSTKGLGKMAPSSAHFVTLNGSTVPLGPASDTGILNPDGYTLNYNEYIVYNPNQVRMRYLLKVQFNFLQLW
PARP1, sequence (P09874 whole entry, the tested form may be a part): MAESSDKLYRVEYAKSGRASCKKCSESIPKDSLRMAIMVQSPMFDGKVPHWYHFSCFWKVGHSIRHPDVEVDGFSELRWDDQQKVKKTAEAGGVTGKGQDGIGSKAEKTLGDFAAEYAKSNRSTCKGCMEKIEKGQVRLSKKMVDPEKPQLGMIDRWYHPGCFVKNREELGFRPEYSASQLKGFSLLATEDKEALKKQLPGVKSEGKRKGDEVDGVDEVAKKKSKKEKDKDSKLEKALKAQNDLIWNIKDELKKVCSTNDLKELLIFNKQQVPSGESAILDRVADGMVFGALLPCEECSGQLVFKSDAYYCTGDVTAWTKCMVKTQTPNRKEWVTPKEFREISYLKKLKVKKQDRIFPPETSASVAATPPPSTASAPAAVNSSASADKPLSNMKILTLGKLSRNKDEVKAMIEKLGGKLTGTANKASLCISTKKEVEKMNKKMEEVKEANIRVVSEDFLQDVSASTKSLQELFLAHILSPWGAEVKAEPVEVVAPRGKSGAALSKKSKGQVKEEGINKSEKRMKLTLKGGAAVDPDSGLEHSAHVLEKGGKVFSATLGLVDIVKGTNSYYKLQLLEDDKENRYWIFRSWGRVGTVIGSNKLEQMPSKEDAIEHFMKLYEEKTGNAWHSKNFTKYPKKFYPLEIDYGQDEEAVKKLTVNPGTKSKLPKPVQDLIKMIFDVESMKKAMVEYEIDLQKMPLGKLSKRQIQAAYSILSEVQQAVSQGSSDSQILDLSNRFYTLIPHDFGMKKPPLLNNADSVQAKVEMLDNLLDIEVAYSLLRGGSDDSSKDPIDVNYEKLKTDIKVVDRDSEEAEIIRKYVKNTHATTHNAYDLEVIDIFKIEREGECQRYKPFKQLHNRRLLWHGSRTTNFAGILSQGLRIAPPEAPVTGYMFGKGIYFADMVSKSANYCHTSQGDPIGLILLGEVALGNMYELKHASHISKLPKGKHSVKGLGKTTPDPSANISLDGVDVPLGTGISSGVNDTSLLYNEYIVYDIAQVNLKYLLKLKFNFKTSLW

For the molecule `CCn1c(=O)[nH]c2cc(CN3CCN(c4ccc(C(=O)NC)nc4)CC3)ccc2c1=O` [Compound 3, 5-(4-((3-ethyl-2,4-dioxo-1,2,3,4-tetrahydroquinazolin-7-yl)methyl)piperazin-1-yl)-N-methylpicolinamide formate], the negative logarithm of the IC50 (pIC50) at recombinant human PARP2 was < 5.52; in experiment [1], 5.52 to 6.52; in experiment [2], < 5.52. For the same molecule, the results for the inhibition at 10 µM (on recombinant human PARP2; in experiment [2]) were 33 to 67% and < 33%, respectively. The molecule also had a negative logarithm of the EC50 (pEC50) on PARP1 of 5.52 to 6.52.
Regarding `CCn1c(=O)[nH]c2cc(CN3CCN(c4ccc(C(=O)NC)nc4C)CC3)ccc2c1=O` [Compound 16, 5-{4-[(3-ethyl-2,4-dioxo-1H-quinazolin-7-yl)methyl]piperazin-1-yl}-N,6-dimethylpyridine-2-carboxamide], the pIC50 was < 5.52 at recombinant human PARP2, > 6.52 in experiment [1] and < 5.52 in experiment [2]. Besides, the inhibition at 10 µM is 33 to 67% at recombinant human PARP2 and < 33% in experiment [2]. Also, the pEC50 at PARP1 is > 6.52.
`CCn1c(=O)[nH]c2cc(CN3CCN(c4ccc(C(=O)NC)nc4C)CC3)ccc2c1=S` [Compound 51, 5-(4-((3-ethyl-2-oxo-4-thioxo-1,2,3,4-tetrahydroquinazolin-7-yl)methyl)piperazin-1-yl)-N,6-dimethylpicolinamide formate]: the negative-log IC50 (pIC50) is < 5.52 at recombinant human PARP2, > 6.52 in experiment [1] and < 5.52 in experiment [2]. Besides, the inhibition at 10 µM on recombinant human PARP2 is 33 to 67%; in experiment [2] it was > 67%. This molecule showed a pEC50 on PARP1 of 5.52 to 6.52.
Turning to `CCn1c(=O)[nH]c2cc(CN3CCN(c4ccc(C(=O)NC)nc4C)CC3)sc2c1=O` [Compound 188, 5-(4-((3-ethyl-2,4-dioxo-1,2,3,4-tetrahydrothieno[3,2-d]pyrimidin-6-yl)methyl)piperazin-1-yl)-N,6-dimethylpicolinamide], the negative-log IC50 (pIC50) was < 5.52 at recombinant human PARP2, > 6.52 in experiment [1] and < 5.52 in experiment [2]. In addition, the inhibition at 10 µM at recombinant human PARP2 was 33 to 67%; in experiment [2] it was < 33%. The molecule also had a negative logarithm of the EC50 (pEC50) on PARP1 of 5.52 to 6.52.
Regarding `CCN1Cc2ccc(CN3CCN(c4ccc(C(=O)NC)nc4)CC3)cc2NC1=O` [Compound 196, 5-(4-((3-ethyl-2-oxo-1,2,3,4-tetrahydroquinazolin-7-yl)methyl)piperazin-1-yl)-N-methylpicolinamide formate], the pIC50 is < 5.52 on recombinant human PARP2, 5.52 to 6.52 in experiment [1] and < 5.52 in experiment [2]. Moreover, the inhibition at 10 µM was 33 to 67% on recombinant human PARP2 and < 33% in experiment [2]. On PARP1, this molecule had a negative-log EC50 (pEC50) of 5.52 to 6.52.
